# Experimental data reported in patent US11382985B2, “Anti-tumour immune responses to modified self-epitopes” (Scancell Limited, priority 2015, dated 2022).
# Square brackets hold non-standard residues; d marks the D form. Ends that are not written are not given here. Cit = NC(=O)NCCC[C@H](N)C(=O)O
# Experiments:
# B16DR4 tumour = assay: B16DR4 melanoma tumour challenge; format: in vivo, DR4 mice
# Protocol: (§1) C57BL/6 mice (Charles River, UK), HLA-DR4 mice (Taconic, USA), HHDII/DR1 mice (Pasteur institute, France) and the HHD/HLA-DP4 transgenic strain of mouse as described in patent WO2013/017545 A1 (EMMA repository, France) were used, aged between 8 and 12 weeks, and cared for by the staff at Nottingham Trent University. All work was carried out under a Home Office project licence. Peptides were dissolved in PBS to 1 mg/ml and then emulsified (a series of dilutions) with different adjuvants: CpG and MPLA 6 μg/mouse of each (Invivogen, UK), Incomplete Freund's 50 μl/mouse (Sigma, UK), poly I:C 10 μg/mouse (Invivogen, UK), Imiquimod 25 μg/mouse (Invivogen, UK) and GMCSF 10 μg/mouse (Peprotech, UK). Peptides (25 μg/mouse) were injected subcutaneously at the base of the tail. DNA (1 μg/mouse) was coated onto 1.0 μm gold particles (BioRad, Hemel Hempstead, UK) using the manufacturer's instructions and administered intradermally by genegun (BioRad). Homspera (10 nM/mouse) (PeptideSynthetics, UK) was injected intradermally with genegun immunisation. Mice were immunized at either day 0 for peptide immunisation or days, 0 and 7 for genegun immunisation, unless otherwise stated. Spleens were removed for analysis at day 14 for peptide and day 20 for peptide or genegun immunisation unless stated otherwise.
# For tumour challenge experiments mice were challenged with 2.5×10^4 B16 DR4 cells or 1×10^6 LLC2/LLC2 DR4 cells, 2.5×10^5 Pan02 DR4 cells in matrigel or 4×10^5 B16 HHDII DP4 cells subcutaneously on the right flank 3 days prior to primary immunisation and then were immunised as above. Tumour growth was monitored at 3-4 days intervals and mice were humanely euthanized once tumour reached ≥10 mm in diameter.
# B16iDR4 = assay: B16 tumour with IFNγ inducible DR4 (B16iDR4) challenge; format: in vivo, DR4 mice
# Protocol: as §1
# For tumour challenge experiments mice were challenged with 2.5×10^4 B16 DR4 cells or 1×10^6 LLC2/LLC2 DR4 cells, 2.5×10^5 Pan02 DR4 cells in matrigel or […] above. Tumour growth was monitored at 3-4 days intervals and mice were humanely euthanized once tumour reached ≥10 mm in diameter.
# PBMCs [1] = assay: Intracellular cytokine staining of PBMCs; format: cell-based, human; details: donor 4, cultured 13 days in Enolase 241cit, restimulated; label = restimulating peptide
# Protocol: PBMC cultures were set up as detailed above. On day 14 PBMCs were washed and cultured with synthetic peptide (10 μg/ml) in the presence of brefeldin A for 20 hrs at 37° C. Cells were stained with cell surface markers CD4 and CD8 using PE-Cy5 and efluor450 labelled antibodies respectively. Cells were subsequently fixed and permeabilised and stained with IFNγ PE-Cy7 labelled antibody. After staining cells were fixed and analysed on Miltenyi MACSQuant flow cytometer.
# PBMCs [2] = assay: Thymidine proliferation assay on healthy donor PBMCs; format: cell-based, human; details: for healthy donors showing a proliferative response: PBMCs from 6 healthy donors, peptide 10 μg/ml, days 4, 7, 11
# Protocol: PBMC were isolated from freshly drawn heparinised blood by Ficol-Hypaque (Sigma) gradient centrifugation. PBMC (1.5×10^6 cells/well) were stimulated with single peptides (final concentration 10 μg/ml) in RPMI containing 5% pooled autologous human serum, 2 mM glutamine, 20 mM HEPES and Penicillin-streptomycin (1%) in a final volume of 2 ml. Stimulation with purified protein derivative, PPD (final concentration 10 μg/ml) served as a positive control for the proliferative capacity of PBMC. As a negative control PBMC were incubated with medium alone. The PBMC were cultured at 37° C. in an atmosphere of 5% CO2 for 4, 7 and 11 days. To assess proliferation at these times points 100 μl in triplicate from each culture was aliquoted into a round bottom well of a 96 well plate and 3H-thymidine added (0.0185 MBq/well) and incubated at 37° C. for a further 8 hours. The cultures were harvested onto unifilter plates and incorporation of ^3H-thymidine was determined by β-scintillation counting. The results were assessed by calculating the stimulation index (SI) as the ratio of the mean of counts per minute (cpm) of epitope-stimulated to the mean of unstimulated cultures. The proliferative assay was considered positive when SI >2.5.
# splenocytes = assay: Screening of citrullinated Enolase peptide pools, ex vivo IFNγ Elispot, DR4 mice; format: in vivo, transgenic DR4 mouse; details: single immunisation with pool of 4-6 human citrullinated peptides, 20 μg each, CpG/MPLA, day 14, label = peptide used for restimulation
# Protocol: C57BL/6 mice (Charles River, UK), HLA-DR4 mice (Taconic, USA), HHDII/DR1 mice (Pasteur institute, France) and the HHD/HLA-DP4 transgenic strain of mouse as described in patent WO2013/017545 A1 (EMMA repository, France) were used, aged between 8 and 12 weeks, and cared for by the staff at Nottingham Trent University. All work was carried out under a Home Office project licence. Peptides were dissolved in PBS to 1 mg/ml and then emulsified (a series of dilutions) with different adjuvants: CpG and MPLA 6 μg/mouse of each (Invivogen, UK), Incomplete Freund's 50 μl/mouse (Sigma, UK), poly I:C 10 μg/mouse (Invivogen, UK), Imiquimod 25 μg/mouse (Invivogen, UK) and GMCSF 10 μg/mouse (Peprotech, UK). […]
# Elispot assays were performed using murine IFNγ, IL-17 and IL-10 capture and detection reagents according to the manufacturer's instructions (Mabtech, Sweden). […] After incubation, captured IFN and IL-10 were detected by biotinylated anti-IFNγ and IL-10 antibodies and developed with a streptavidin alkaline phosphatase and chromogenic substrate. Spots were analysed and counted using an automated plate reader (Cellular Technologies Ltd).
# Screening was performed to identify potential citrullinated Enolase epitopes in mice. […] After 14 days the mice were culled and the immune responses to each peptide within the immunising pool were assessed by ex vivo Elispot (FIG. 2). […]
substance,measurement,setting,value
VIGMDVAASEFF-CIT-SGKYDLD (VIGMDVAASEFF[Cit]SGKYDLD; listed as Homo sapiens) [Enolase 241cit],animals surviving at day 45,"B16DR4 tumour; B16DR4 challenge, three doses of 5 μg in GM-CSF over three weeks, control 0% by day 28",70%
same,"tumour volume, median, day 17 post tumour implant","B16DR4 tumour; peptide immunisation after B16DR4 implant, control median 49 mm^3",0 mm^3
same,survival after 45 days,"B16DR4 tumour; peptide immunisation after B16DR4 implant, unimmunised 15%",50%
same,survival at day 42,"B16iDR4; challenge 4 days prior to peptide immunisation, control 0%",90%
same,"tumour volume, median, day 17 post tumour implant","B16iDR4; challenge 4 days prior to peptide immunisation, control median 65 mm^3",0 mm^3
same,survival 39 days after rechallenge,"B16iDR4; immunised survivors rechallenged with B16iDR4 at day 42, all controls dead by day 29",67%
same,IFNγ positive CD4 cells,PBMCs [1],0.44%
same,"proliferation index, mean","PBMCs [2]; Donor 1, day 4",0.8
same,"proliferation index, mean","PBMCs [2]; Donor 1, day 7",28.6
same,"proliferation index, mean","PBMCs [2]; Donor 1, day 11",20.4
same,"proliferation index, mean","PBMCs [2]; Donor 2, day 11",2.7
same,"proliferation index, mean","PBMCs [2]; Donor 4, day 4",12.5
same,"proliferation index, mean","PBMCs [2]; Donor 4, day 7",28
same,proliferation index,"PBMCs [2]; Donor 4, day 11",4.4
same,proliferative response,PBMCs [2]; Donor 6,non-responder
same,healthy donors showing a proliferative response,PBMCs [2],5/6
same,healthy donors showing a proliferative response,PBMCs [2]; listed as Enolase 241-260 citrullinated at position 253,4/6
same,IFNγ response to peptide compared to media,splenocytes,significant response
